We go through 16 compounds from ChEMBL document CHEMBL4680255, “Antioxidant activity of novel quinazolinones bearing sulfonamide: Potential radiomodulatory effects on liver tissues via NF-κB/ PON1 pathway” (Eur J Med Chem, 2020).

Data set [1] can be described thus: Antioxidant activity assessed as DPPH radical scavenging activity after 30 mins under dark condition by spectrophotometric analysis. The data set is classed as functional. Background: Loss of DPPH colour is used to gauge radical scavenging.
The nature of data set [2]: Acute toxicity in ip dosed Swiss albino mouse measured after 24 hrs. Format: organism-based. Conditions: in vivo.
The subject of data set [3] is Mus musculus. In words: Radioprotective activity in ip dosed Swiss albino mouse assessed as reduction in gamma-irradiation-induced decline in serum albumin level at 1/10 x LD50 treated at 2 hrs prior to 5 Gy gamma irradiation exposure on 1st day followed by compound treatment for next 2 days and measured at 24 hrs post last dose. The data set is classed as functional, organism-based. Conditions: time 3.0 day.

Data set [4] relates to Mus musculus. As to the kind of experiment: Hepatoprotective activity in ip dosed Swiss albino mouse assessed as serum ALT level at 1/10 x LD50 treated at 2 hrs prior to 5 Gy gamma irradiation exposure on 1st day followed by compound treatment for next 2 days and measured at 24 hrs post last dose. The data set is classed as functional, organism-based. Conditions: time 3.0 day.

For data set [5], the system named is Mus musculus. In words: Antioxidant activity in ip dosed Swiss albino mouse assessed as reduction in gamma irradiation-induced hepatic oxidative stress by measuring increase in Zn2+ concentration in liver at 1/10 x LD50 treated at 2 hrs prior to 5 Gy gamma irradiation exposure on 1st day followed by compound treatment for next 2 days and measured at 24 hrs post last dose. Format: functional. Also noted: scale not given: the % may be the effect or the level left. Conditions: time 3 day.

In data set [6] the test system is Mus musculus. As to the kind of experiment: Antioxidant activity in ip dosed Swiss albino mouse assessed as reduction in gamma irradiation-induced hepatic oxidative stress by measuring reduction in ROS level in liver at 1/10 x LD50 treated at 2 hrs prior to 5 Gy gamma irradiation exposure on 1st day followed by compound treatment for next 2 days and measured at 24 hrs post last dose. Conditions: time 3 day. The data set is classed as functional.

Data set [7] deals with Mus musculus. As to the kind of experiment: Antioxidant activity in ip dosed Swiss albino mouse assessed as reduction in gamma irradiation-induced hepatic oxidative stress by measuring reduction in MDA level in liver at 1/10 x LD50 treated at 2 hrs prior to 5 Gy gamma irradiation exposure on 1st day followed by compound treatment for next 2 days and measured at 24 hrs post last dose. Conditions: time 3 day. The data set is classed as functional.

In data set [8] the test system is Mus musculus. As to the kind of experiment: Hepatoprotective activity in ip dosed Swiss albino mouse assessed as serum AST level at 1/10 x LD50 treated at 2 hrs prior to 5 Gy gamma irradiation exposure on 1st day followed by compound treatment for next 2 days and measured at 24 hrs post last dose. Conditions: time 3.0 day. The data set is classed as functional, organism-based.

Data set [9] concerns Mus musculus. In words: Radioprotective activity in ip dosed Swiss albino mouse assessed as reduction in gamma irradiation-induced decrease in PON1 activity by measuring increase in PON1 activity in liver at 1/10 x LD50 treated at 2 hrs prior to 5 Gy gamma irradiation exposure on 1st day followed by compound treatment for next 2 days and measured at 24 hrs post last dose. The data set is classed as functional. Also noted: scale not given: the % may be the effect or the level left. Conditions: time 3 day.

Data set [10] concerns Mus musculus. In words: Antioxidant activity in ip dosed Swiss albino mouse assessed as reduction in gamma irradiation-induced hepatic oxidative stress by measuring increase in SOD activity in liver at 1/10 x LD50 treated at 2 hrs prior to 5 Gy gamma irradiation exposure on 1st day followed by compound treatment for next 2 days and measured at 24 hrs post last dose. Conditions: time 3 day. Format: functional. Also noted: scale not given: the % may be the effect or the level left.

The subject of data set [11] is Mus musculus. In words: Radioprotective activity in ip dosed Swiss albino mouse assessed as reduction in gamma irradiation-induced increase in NF-kappaB activity by measuring decrease in NFkappaB activity in liver at 1/10 x LD50 treated at 2 hrs prior to 5 Gy gamma irradiation exposure on 1st day followed by compound treatment for next 2 days and measured at 24 hrs post last dose by ELISA. Format: functional. Conditions: time 3 day.

The source made the active and inactive calls. The rule behind the calls is not given here.

Consider `O=C1O[C@H]([C@@H](O)CO)C(O)=C1O` [ASCORBIC ACID], for which the IC50 (usually the midpoint of a concentration-inhibition curve) in data set [1] worked out at 132 µM.
On the same count and under the same terms, the figure for `NS(=O)(=O)c1ccc(-n2c(SCC(=O)Nc3nnc(C(F)(F)F)s3)nc3ccccc3c2=O)cc1` is 107 µM; for `CCOC(=O)c1cccc(NC(=O)CSc2nc3ccccc3c(=O)n2-c2ccc(S(N)(=O)=O)cc2)c1` it is 65.7 µM; for `CCOc1ccc2nc(NC(=O)CSc3nc4ccccc4c(=O)n3-c3ccc(S(N)(=O)=O)cc3)sc2c1` it is 50.5 µM.
Still for that read-out and setting: the same measure for `NS(=O)(=O)c1ccc(-n2c(SCC(=O)Nc3nccs3)nc3ccccc3c2=O)cc1`: 125 µM.
As to `CN1C(=O)c2ccc(NC(=O)CSc3nc4ccccc4c(=O)n3-c3ccc(S(N)(=O)=O)cc3)cc2C1=O`, the IC50 in data set [1] is 48.5 µM.
Regarding `Cn1c(NC(=O)CSc2nc3ccccc3c(=O)n2-c2ccc(S(N)(=O)=O)cc2)cc(=O)n(C)c1=O`, in data set [1], the IC50 was 56.4 µM.
In the case of `Cc1cc(NC(=O)CSc2nc3ccccc3c(=O)n2-c2ccc(S(N)(=O)=O)cc2)no1`, the IC50 in data set [1] came out at 82.4 µM.
Same read-out and setting: the same measure for `NS(=O)(=O)c1ccc(-n2c(SCC(=O)NN3CCOCC3)nc3ccccc3c2=O)cc1`: 66.4 µM; for `NS(=O)(=O)c1ccc(-n2c(SCC(=O)Nc3c[nH]c(=O)[nH]c3=O)nc3ccccc3c2=O)cc1`: 54.4 µM; for `CCOC(=O)N1CCC(NC(=O)CSc2nc3ccccc3c(=O)n2-c2ccc(S(N)(=O)=O)cc2)CC1`: 108 µM.
Same read-out and setting: the figure for `NS(=O)(=O)c1ccc(-n2c(SCC(=O)NC3CCN(Cc4ccccc4)CC3)nc3ccccc3c2=O)cc1` is 104 µM; for `CCOC(=O)c1ccccc1NC(=O)CSc1nc2ccccc2c(=O)n1-c1ccc(S(N)(=O)=O)cc1` it is 89.5 µM; for `NS(=O)(=O)c1ccc(-n2c(SCC(=O)NCCN3CCOCC3)nc3ccccc3c2=O)cc1` it is 69.8 µM.
On the same count and under the same terms, the same measure for `NS(=O)(=O)c1ccc(-n2c(SCC(=O)Nc3nc4ccc([N+](=O)[O-])cc4s3)nc3ccccc3c2=O)cc1`: 94.8 µM.
Regarding `NS(=O)(=O)c1ccc(-n2c(SCC(=O)Nc3cnccn3)nc3ccccc3c2=O)cc1`, the LD50 (in general, the dose at which mortality reaches 50%) at 24 h in [2] was determined as 200 mg/kg. For the same compound, in [1], the IC50 stood at 45.8 µM. Besides, in the data set on Mus musculus [3], the outcome was Active. In addition, the outcome in the data set on Mus musculus [4] and in the data set with Mus musculus [8] was inactive. Further, the Activity in the data set with Mus musculus [5] came out at 39.4%; with Mus musculus [9], 104.8%; with Mus musculus [10], 157%. Further, the entries for the “inhibition (INH)” value with Mus musculus [6], in the data set on Mus musculus [7] and in the data set with Mus musculus [11] were 30.6%, 49% and 45.6%, respectively.
